Experimental data reported in US10385080B2, “STAT6 inhibitors” (Board of Regents, The University of Texas System, priority 2013, dated 2019).
“Also recorded” adds a separate entry of the source.

Legend:
[1] = tested on: Stat5; assay: Selectivity: Stat5 phosphorylation in EGF-stimulated MDA-MB-468 cells; assay type: cell-based; details: serum starved MDA-MB-468 cells, 2 hr
Procedure: (§1) Compounds were screened at 5 μM for their ability to inhibit IL-4 stimulated phosphorylation of STAT6 in Beas-2B immortalized human airway cells. Cells were treated with prodrug for 2 hr and then stimulated with IL-4. After 30 min cells were lysed and pSTAT6 and total STAT6 were measured with western blots (FIG. 7). Without being bound by theory, the inhibition observed is consistent with compounds entering cells, being stripped of the POM groups, binding to the SH2 domain of STAT6, blocking binding to IL-4Rα and preventing phosphorylation of Tyr641. […] Compounds resulting in <10% residual phosphorylation were taken on to MTS cytotoxicity assays and dose response assays. (FIG. 8). The cyclic aromatic amides PM-63I, PM-80I, PM-81I, and PM-86I were very potent with IC50 values from 50-500 nM. […] With the exception of PM-43I, concentrations that inhibit STAT6 phosphorylation are 20-100 fold lower than those resulting in toxicity. STAT6 inhibitors were assayed for their ability to inhibit the phosphorylation of STAT 1, STAT 3, STAT 5, Akt, and FAK, all processes that depend on SH2 domain-phosphotyrosine interactions (Mandal, P. K. et al. 2011). Serum starved MDA-MB-468 breast cancer cells were treated with STAT6 inhibitors for 2 hr and then were stimulated with EGF (See FIGS. 9A and 9B).

[2] = tested on: allergic airway disease; assay: Allergic lung disease reversal model (A. niger spores, treatment of established disease); assay type: in vivo, mice
Procedure: FIG. 17A, Mice are treated intranasally with 400,000 Aspergillus niger conidia every other day. After two weeks A. niger conidia are administered with either DLPC or DLPC/PM-43I. Airway hyperresponsiveness is measured at week 2, 3, and 4. FIG. 17B, Airway hyperrepsonsiveness induced by acetylcholine is revered by treatment with PM-43I.
In separate experiments wild type C57BL/6 mice were challenged with the spores of A. niger for two weeks after which the inventors began to give PM-242H intranasally at 50 micrograms per dose at the time of continued fungal challenge for an additional two weeks (FIG. 13A).
(§2) Mice were challenged intranasally with a clinical isolate of 4×10^5 A. niger conidia every two days for a total of 8 challenges and treated with 50 μg of the indicated β-agonist, liposome vehicle (DLPC) and/or PM-242H (5 or 50 μg) intranasally as indicated and the allergic airway disease phenotype was determined according to previously described methods (Porter, P. et al. 2009).
(§3) Allergic airway disease was assessed as previously described (Porter, P. et al. 2009). Changes in respiratory system resistance (RRS) in response to intravenous acetylcholine challenge, bronchoalveolar lavage (BAL) fluid differential counts, and analysis of lung IL-4, IL-17A and IFN-γ producing cells by enzyme linked immunocell spot assay (ELISpot) were performed as previously described (Lee, S. H. et al. 2003; Polikepahad, S. et al. 2010).
Lungs were perfused of blood by cannulating the pulmonary artery and injecting ice cold PBS until lavage returning via the left atrium was clear. Lungs were then inflated via the trachea with 10% formalin at 25 cm water pressure and the tracheas were tied off prior to removal of the cardiopulmonary unit en bloc submerging in 10% formalin overnight. Fixed lungs were then divided into individual lobes that were then halved and embedded in paraffin. Lung sections were cut at 5 microns and stained with the periodic acid-Schiff (PAS) kit (395B; Sigma-Aldrich, St. Louis, Mo.).

[3] = tested on: asthma-related parameters; assay: Dose effect on asthma-related parameters in fungus-challenged mice; assay type: in vivo; details: fungus-challenged mice
Procedure: (§4) The issue of toxicity was addressed with the newer synthetic STAT6 peptidomimetic agents 86i and 43i in two ways. First, the inventors determined the effect of each inhibitor on asthma-related parameters in fungus-challenged mice. […] Second, the weights of mice were measured during challenge with the different doses of both STAT6 inhibitors.
as §2, §3

[4] = Toxicity: weights of mice during challenge with different doses; assay type: in vivo; details: highest dose of 50 micrograms
Procedure: as §4

[5] = target: T1, STAT6 (Homo sapiens, UniProt P42226); assay: Inhibition of IL-4 (and IL-13) stimulated phosphorylation of STAT6 in Beas-2B cells, western blot; assay type: cell-based; parameters: endogenous in cells; host or cells: Beas-2B immortalized human airway cells; details: dose response
T1 sequence (P42226 1-847): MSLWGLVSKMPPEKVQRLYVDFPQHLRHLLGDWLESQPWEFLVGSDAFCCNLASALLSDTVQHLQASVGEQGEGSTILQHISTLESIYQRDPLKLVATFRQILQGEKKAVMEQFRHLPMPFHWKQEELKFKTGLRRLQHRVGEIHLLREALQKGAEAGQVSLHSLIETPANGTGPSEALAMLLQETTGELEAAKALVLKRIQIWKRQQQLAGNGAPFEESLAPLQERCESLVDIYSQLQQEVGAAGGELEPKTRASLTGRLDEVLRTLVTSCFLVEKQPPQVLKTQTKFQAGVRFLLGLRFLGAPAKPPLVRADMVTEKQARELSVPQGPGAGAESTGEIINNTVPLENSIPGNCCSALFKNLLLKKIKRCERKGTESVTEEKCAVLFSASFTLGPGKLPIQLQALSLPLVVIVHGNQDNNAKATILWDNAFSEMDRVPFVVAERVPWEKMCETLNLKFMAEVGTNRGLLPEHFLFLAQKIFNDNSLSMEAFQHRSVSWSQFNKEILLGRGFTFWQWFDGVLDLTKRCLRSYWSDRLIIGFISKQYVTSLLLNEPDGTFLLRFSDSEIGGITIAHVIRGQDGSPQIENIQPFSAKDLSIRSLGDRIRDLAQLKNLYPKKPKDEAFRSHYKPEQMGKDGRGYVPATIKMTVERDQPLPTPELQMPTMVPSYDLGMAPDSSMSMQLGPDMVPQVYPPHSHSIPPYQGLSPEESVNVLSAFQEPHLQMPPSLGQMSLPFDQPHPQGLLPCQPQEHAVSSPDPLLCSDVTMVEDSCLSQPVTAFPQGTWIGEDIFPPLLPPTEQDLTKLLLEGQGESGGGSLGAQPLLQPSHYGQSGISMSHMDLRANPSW
Procedure: Compound PM-241H inhibited the phosphorylation of Tyr641 of STAT6 in Beas-2B cells stimulated with IL-4 and IL-13.
as §1
(§5) Cells or lungs were isolated and lysed in RIPA buffer (9806S; Cell Signaling, Danvers, Mass.), protein was quantified using BCA Protein Assay Reagent (23227; Thermo Fisher Scientific, Rockford, Ill.) and denatured in Laemmli sample buffer (161-0737; Bio-Rad, Hercules, Calif.) according to manufacturer's protocol. Proteins were separated on SDS-Page gels were hand-poured using a standard electrophoresis unit (Bio-Rad, Hecules, Calif.) and transferred to a membrane using iBlot Gel Transfer Device (IB 1001; Invitrogen, Grand Island, N.Y.). Membranes were blocked in 2% FBS PBST and probed for c-Src, p-c-Src, pErk1/2, Erk1/2, p STAT6, STAT6, pSTAT3, STAT3, pSTAT5, STAT5, Shp-1, and β-actin. Signal was detected with a ChemiDoc XRS+ system (BioRad; Hercules, Calif.).

[6] = tested on: Th1, Th2, Th17 cells; assay: Th cell development: ovalbumin restimulation ELISpot of splenocytes from ovalbumin/alum immunized mice; assay type: in vivo
Procedure: The ability of PM-242H to inhibit the development of major T helper effector subsets (Th1, Th2, Th17 cells) at the time of allergen exposure was tested. For these experiments, mice were immunized with chicken egg ovalbumin precipitated in alum over two weeks and then challenged intranasally with the spores of the fungus Aspergillus niger (AN) together with alum-free ovalbumin. The inventors prepared single cell suspensions of splenocytes from these same mice and stimulated the T cells in these preparations with ovalbumin to determine the precise number of antigen-specific Th1, Th2 and Th17 cells that developed. […] In summary, treatment of mice with PM-242H suppressed the development of Th2 and Th17, but not Th1 cells. These findings are entirely consistent with the known properties of STAT6, but in addition indicate that STAT6 may be involved with the production of Th17 cells.
(§6) Mice were sensitized to ovalbumin precipitated in alum as described in FIG. 3 (Corry, D. B. et al. 1996). In brief, mice were vaccinated intraperitoneally weekly with ovalbumin/alum together with PM-242H (50 or 250 μg) or liposome vehicle (DLPC) for 2 consecutive weeks and allowed to rest for 1 week. Mice were then intranasally challenged with ovalbumin (1 mg/mL in PBS; A5503, Sigma-Aldrich) and 4×10^5A. niger conidia for 5 consecutive days after which the allergic airway disease phenotype was assessed. Randomization was not used to assign mice to specific treatment groups. Investigators were blind as to mouse genotype and treatment during data collection.
Splenocytes from the indicated challenge groups of naïve and sensitized mice were assessed for antigen-specific recall cytokine responses by ELISpot. In brief, spleens were removed post mortem, de-aggregated by pressing through 40 μm nylon mesh and the red blood cells were removed from resulting cell suspension by hypotonic lysis. The splenocytes were then washed twice and cultured in flat-bottom wells of 96-well microtiter plates that were pre-coated with capture antibodies to IL-4, interferon gamma (IFN-γ) and IL-17A. Splenocytes were added in duplicate cultures of 0.5×10^6 cells/well that were then diluted serially two-fold to 0.015×10^6 cells/well. Cells were cultured in the presence of media or whole ovalbumin (1 mg/mL) overnight and plates were developed as previously described (Kheradmand, F. et al. 2002).

[7] = tested on: allergic lung disease; assay: Allergic lung disease induction model (ovalbumin/alum immunization, ovalbumin and A. niger challenge); assay type: in vivo, mice
Procedure: The same model as described in part E was used to determine the effect of PH-242H on the induction of allergic lung disease. Mice that were immunized with ovalbumin and challenged intranasally with ovalbumin and A. niger spores developed AHR as determined by a shift to the left of the acetylcholine (Ach) dose response curve as compared to PBS challenged animals. Enzyme linked immunocell spot (ELISpot) assays were then performed on whole lung homogenates, assaying for IL-4, gamma interferon (IFN-γ) and IL-17A-secreting cells.
as §6, §3

[8] = tested on: STAT6; assay: STAT6 phosphorylation in vitro and in vivo (summary statement)
Excerpt: The synthesized PM-242H compound was advanced to in vivo studies. PM-242H was formulated as simple dilauroylphosphatidyl-choline liposomes and applied by intranasal administration. […] These findings with PM-242H in vivo and in vitro are entirely consistent with and explained by its ability to inhibit selectively STAT6.
as §5

[9] = A. niger conidia, DLPC/PM-43I after two weeks
[10] = splenocytes restimulated with ovalbumin
[11] = ELISpot on whole lung homogenates
[12] = intranasal 50 micrograms per dose during established disease

CC(=CC(=O)NC1CCCCN(CC(=O)N(C)c2ccccc2)C1=O)c1ccc(C(F)(F)P(=O)(OCOC(=O)C(C)(C)C)OCOC(=O)C(C)(C)C)cc1 (stereo not shown) [PM-43I]
cross reactivity with Stat5 [1]: significant cross reactivity | established allergic airway disease ([2]; A. niger conidia every other day, DLPC/PM-43I after two weeks): reverses established allergic airway disease | immune cell recruitment [2, 9]: does not significantly affect | lung immune response to A. niger infection [2, 9]: does in inhibit | airway hyperresponsiveness induced by acetylcholine ([2]; A. niger conidia, DLPC/PM-43I after two weeks, weeks 2, 3, 4): revered | maximally effective dose [3]: 0.5 micrograms | weight gain [4]: reduction in weight gain | IC50 [5]: 1 to 2.5 µM

CC(C)(C)C(=O)OCOP(=O)(OCOC(=O)C(C)(C)C)C(F)(F)c1ccc(/C=C/C(=O)NC(C(=O)N2CCCC2C(=O)N(c2ccccc2)c2ccc(-c3ccccc3)cc2)C(C)(C)C)cc1 (stereo not shown) [PM-242H]
effect on Th cells ([6]; FIGS. 11A-H legend): inhibits Th cells | Th1 (IFN-γ)-secreting cells [6, 10]: unaffected | development of Th2 (IL-4-producing) T cells [6, 10]: failed to develop | development of Th17 (IL-17A-producing) T cells [6, 10]: failed to develop | IL-17A-secreting cells in lungs [7, 11]: significantly suppressed | ratio between IL-4 and IFN-γ-secreting cells in lungs [7, 11]: significantly suppressed | development of allergic lung disease ([7]; FIG. 12 legend): blocks the development of allergic lung disease | airway hyperresponsiveness ([2]; C57BL/6 mice, intranasal 50 micrograms per dose during established disease): abrogation of airway hyperresponsiveness; also recorded: promotes recovery from airway hyperresponsiveness | mucus production ([2]; FIGS. 13A-F legend): inhibition of mucus production | goblet cell metaplasia (periodic acid-Schiff staining) [2, 12]: reduction in goblet cell metaplasia | lung and airway inflammation [2, 12]: did not, however, attenuate | number of airway eosinophils [2, 12]: increased | number of lung IL-17A-secreting cells [2, 12]: increased | STAT6 phosphorylation both in vitro and in vivo [8]: inhibit
